# Measurements reported in patent US20240010642A1, “MODULATORS OF PROGRAMMED DEATH-LIGAND-1” (SOUTHERN RESEARCH INSTITUTE, priority 2021, published 2024).
# Square brackets hold non-standard residues; d marks the D form. Peptide text beside a SMILES is read from it. * marks the point of attachment. Api = NC1(C(=O)O)CCNCC1; PhAc = O=C(Cc1ccccc1)*; Ac3c = NC1(C(=O)O)CC1; Aib = CC(C)(N)C(=O)O
# What was measured:
# PDL-1 signaling = assay: Luciferase assay (Table 1); assay type: cell-based
# PDL-1 = PDL-1 (Homo sapiens (Human), UniProt Q9NZQ7); assay: KD binding (Table 1)
# Sequence of PDL-1 (Q9NZQ7 19-290): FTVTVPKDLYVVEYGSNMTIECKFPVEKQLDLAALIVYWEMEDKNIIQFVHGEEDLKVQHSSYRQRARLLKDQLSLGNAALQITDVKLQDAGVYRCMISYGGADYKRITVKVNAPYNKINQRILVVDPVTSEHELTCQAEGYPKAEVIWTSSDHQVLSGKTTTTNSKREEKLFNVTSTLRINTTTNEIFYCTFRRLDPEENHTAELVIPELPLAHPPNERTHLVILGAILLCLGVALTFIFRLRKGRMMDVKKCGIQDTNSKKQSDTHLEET
EC50 (PDL-1 signaling),KD (PDL-1),Compound
4.22 µM,–,"CC(C)(NC(=O)C1(NC(=O)Cc2ccccc2)CCNCC1)C(N)=O [Compound No. 22, 2-methyl-2-[[4-(2-phenylacetamido)piperidin-4-yl]formamido]propanamide] (PhAc-[Api]-[Aib]-NH2)"
19.3 µM,–,CC(C)(NC(=O)c1cc(NC(=O)Cc2ccccc2)cc(CN)c1F)C(N)=O [compound 15]
20.4 µM,–,CC(C)(NC(=O)c1ccc(CN)c(NC(=O)Cc2ccc(F)cc2)c1)C(N)=O [compound 13]
1.19 µM,–,CC(C)(NC(=O)c1ccc(CN)c(NC(=O)Cc2ccccc2)c1)C(N)=O [compound 14]
20.6 µM,No Binding,CC(C)(NC(=O)c1cc(NC(=O)Cc2ccc(F)cc2)cc(CN)c1F)C(N)=O [compound 16]
7.06 µM,–,NCc1cc(NC(=O)Cc2ccc(F)cc2)cc(C(=O)NC2(C(N)=O)CCC2)c1 [compound 10]
15.7 µM,–,NCc1cc(NC(=O)Cc2ccc(F)cc2)cc(C(=O)NC2(C(N)=O)CC2)c1 [compound 4]
20.7 µM,–,CNC(=O)C(C)(C)NC(=O)c1cc(CN)cc(NC(=O)Cc2ccc(F)cc2)c1 [compound 19]
0.36 µM,–,NC(=O)C1(NC(=O)C2(NC(=O)Cc3ccc(F)cc3)CCNCC2)CC1 [compound 25]
27.1 µM,–,NCc1cc(NC(=O)Cc2ccccc2)cc(C(=O)NC2(C(N)=O)CCC2)c1 [compound 6]
0.39 µM,No Binding,"CC(C)(NC(=O)c1cc(CN)cc(NC(=O)Cc2ccccc2)c1)C(N)=O [Compound No. 1, 2-[[3-(Aminomethyl)-5-(2-phenylacetamido)phenyl]formamido]-2-methylpropanamide]"
21 µM,No Binding,CNC(=O)C(C)(C)NC(=O)c1cc(CN(C)C)cc(NC(=O)Cc2ccc(F)cc2)c1 [compound 18]
14.3 µM,–,CC(C)(NC(=O)c1cc(NC(=O)Cc2ccc(F)cc2)ccc1CN)C(N)=O [compound 12]
0.07 µM,–,NCc1cc(NC(=O)Cc2ccc(F)cc2)cc(C(=O)NCC(N)=O)c1 [compound 9]
20 µM,–,CC(C)(NC(=O)c1cc(NC(=O)Cc2ccccc2)ccc1CN)C(N)=O [compound 11]
12.6 µM,–,NCc1cc(NC(=O)Cc2ccccc2)cc(C(=O)NC2(C(N)=O)CC2)c1 [compound 3]
0.21 µM,–,CN(C)Cc1cc(NC(=O)Cc2ccc(F)cc2)cc(C(=O)NC(C)(C)C(N)=O)c1 [compound 17]
0.93 µM,–,CC(C)(NC(=O)c1cc(CN)cc(NC(=O)Cc2ccc(F)cc2)c1)C(N)=O [Compound No. 2]
7.73 µM,–,NC(=O)C1(NC(=O)C2(NC(=O)Cc3ccccc3)CCNCC2)CC1 [compound 24] (PhAc-[Api]-[Ac3c]-NH2)
26.1 µM,No Binding,NCc1cc(NC(=O)Cc2ccccc2)cc(C(=O)NC2(C(N)=O)CCCC2)c1 [compound 7]
9.02 µM,–,CC(C)(NC(=O)C1(NC(=O)Cc2ccc(F)cc2)CCNCC1)C(N)=O [compound 23]
